We go through 22 compounds from ChEMBL document CHEMBL4402604, “Discovery and Structure-Activity Relationship Study of (Z)-5-Methylenethiazolidin-4-one Derivatives as Potent and Selective Pan-phosphatidylinositol 5-Phosphate 4-Kinase Inhibitors” (J Med Chem, 2020).

Activity calls are given as the source filed them. The calls are words filed in the database; no cut-off is given here.

A short description of data set [1]: Permeability of the compound by PAMPA method. It counts as ADME. On the technique in general: In PAMPA a lipid-coated filter parts donor from acceptor wells.
A short description of data set [2]: Stability in rat liver microsomes at 1 uM in presence of NADPH regeneration system incubated for 15 mins by LC-MS analysis. It counts as ADME, Microsome. For orientation: Microsomes from liver hold many membrane-bound enzymes, among them those of drug oxidation.
The nature of data set [3]: Lipophilicity, logD of the compound. It counts as physicochemical. The following applies: octanol/water.
Data set [4] addresses Activin receptor type-2A (Homo sapiens) (UniProt P27037). In words: Inhibition of human ACVR2A expressed in baculovirus expression system.

Sequence of Activin receptor type-2A (Homo sapiens) (P27037 whole entry): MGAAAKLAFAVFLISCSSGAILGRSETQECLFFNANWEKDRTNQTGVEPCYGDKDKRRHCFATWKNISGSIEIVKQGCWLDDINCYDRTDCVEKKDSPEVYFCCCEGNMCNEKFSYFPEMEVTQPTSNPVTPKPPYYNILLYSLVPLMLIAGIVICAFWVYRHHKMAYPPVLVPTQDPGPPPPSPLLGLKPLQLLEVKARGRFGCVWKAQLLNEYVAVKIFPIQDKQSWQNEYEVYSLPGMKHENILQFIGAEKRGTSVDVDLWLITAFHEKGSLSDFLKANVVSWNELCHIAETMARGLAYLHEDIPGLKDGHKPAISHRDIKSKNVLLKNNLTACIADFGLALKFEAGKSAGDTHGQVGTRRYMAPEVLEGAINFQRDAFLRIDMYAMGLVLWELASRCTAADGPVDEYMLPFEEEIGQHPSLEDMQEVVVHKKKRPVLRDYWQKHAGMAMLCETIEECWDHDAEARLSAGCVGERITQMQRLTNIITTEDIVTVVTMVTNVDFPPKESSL

In general, logD refers to lipophilicity at a set pH, counting ionised and neutral species. For the compound `CS(=O)(=O)Nc1ccc(-c2cncc(/C=C3\SC(=N)NC3=O)c2)cc1`, the permeability entry in data set [1] is “Impermeable”. Moreover, in data set [2], the Stability entry is reported as “Stable”. The same compound displayed a logD in data set [3] of 0.66. As to `CS(=O)(=O)c1ccc(-c2cncc(/C=C3\SC(=N)NC3=O)c2)cc1`, the logD in data set [3] was found to be 1.1. Take `CNC(=O)Nc1ccc(-c2cncc(/C=C3\SC(=N)NC3=O)c2)cc1`: the logD in data set [3] stood at 1.4. `CS(=O)(=O)Nc1ccc(-c2cncc(-c3cccc4c3CC(=O)N4)c2)cc1` yielded a logD in data set [3] of 1.5.

In the case of `CC(=O)Nc1cccc(-c2cncc(-c3ccc(NS(C)(=O)=O)cc3)c2)c1`, the log distribution coefficient (logD) in data set [3] worked out at 1.7.

On to `CNS(=O)(=O)c1ccc(-c2cncc(/C=C3\SC(=N)NC3=O)c2)cc1`, for which, in data set [3], the pH-dependent lipophilicity (logD) was determined as 1.1. The same measure, in the same setting: as for `CS(=O)(=O)Nc1ccc(-c2cncc(-c3ccc4cc[nH]c4c3)c2)cc1`, the figure is 2.5. The same measure, in the same setting: the result for `CC(=O)Nc1ccc(-c2cncc(/C=C3\SC(=N)NC3=O)c2)cc1` reads 1.5; that for `CS(=O)(=O)Nc1ccc(-c2cncc(/C=C3\CC(=O)NC3=O)c2)cc1`, -0.14. With `CS(=O)(=O)Nc1ccc(-c2cncc(-c3cccc4[nH]ccc34)c2)cc1`, the inhibition result in data set [4] is “Active”. The permeability result in data set [1] is given as “Permeable”. Further, the Stability result in data set [2] is “Stable”. Besides, the log distribution coefficient (logD) in data set [3] was 2.5. `CN(C)c1ccc(-c2cncc(/C=C3\SC(=N)NC3=O)c2)cc1` came in with a logD in data set [3] of 2.4. `CNC(=O)Nc1ccc(-c2cncc(-c3ccc(NS(C)(=O)=O)cc3)c2)cc1` gave a logD in data set [3] of 1.6. With `CS(=O)(=O)Nc1ccc(-c2cnc(N)c(/C=C3\SC(=N)NC3=O)c2)cc1`, in data set [3], the logD came to 0.41. On the same count and under the same terms, as for `N=C1NC(=O)/C(=C/c2cncc(-c3ccc(OC(F)(F)F)cc3)c2)S1`, the figure is 3.7.

Regarding `CS(=O)(=O)Nc1ccc(-c2cncc(-c3ccc4[nH]ccc4c3)c2)cc1`, the logD in data set [3] was found to be 2.5. For the compound `CS(=O)(=O)Nc1ccc(-c2cncc(/C=C3\OC(=O)NC3=O)c2)cc1`, in data set [3], the logD was -1. In data set [3], `CC(=O)Nc1cccc(-c2cncc(/C=C3\SC(=N)NC3=O)c2)c1` came in with a logD of 1.5.

For the compound `CS(=O)(=O)Nc1ccc(-c2cncc(/C=C3\SC(=O)NC3=O)c2)cc1`, the Stability result in data set [2] is on record as “Stable”. The logD in data set [3] is -0.05.

As for `CS(=O)(=O)Nc1ccc(-c2cc(/C=C3\SC(=N)NC3=O)cnc2N)cc1`, the permeability entry in data set [1] is reported as “Impermeable”. In addition, the Stability entry in data set [2] is “Stable”. This compound also yielded a logD in data set [3] of 0.41. Consider `COc1ccc(-c2cncc(/C=C3\SC(=N)NC3=O)c2)c2ccccc12`, for which the log distribution coefficient (logD) in data set [3] was 3.1. With `CC(=O)Nc1cccc(Nc2cncc(-c3ccc(NS(C)(=O)=O)cc3)c2)c1`, the logD in data set [3] turned out to be 1.5. Consider `CC(=O)Nc1cccc(Oc2cncc(-c3ccc(NS(C)(=O)=O)cc3)c2)c1`, for which, in data set [3], the logD is 1.5.
